Measured values from the supplement of paper PMC11919725.

Experiments:
Jurkat [1] = test: confluency relative to DMSO, 18 h (ratio); higher = more viable
In short: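 Jurkat or primary CD4+/CD8+ T cells (naive, or activated 48 h with CD3/CD28 Dynabeads) were treated 18 h with compound at 1 nM–10 µM (log10 steps) at 37 °C, 5% CO2. Then 100 µl of suspension went into 96-well plates with IncuCyte Cytotox Dye and alamarBlue. Confluency came from IncuCyte phase-contrast imaging (×10, five images per well, hourly over 3 h) using the Basic Analyzer. Values are normalised to mean DMSO controls.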

Jurkat [2] = test: metabolic activity relative to DMSO, 18 h (ratio); higher = more viable
In short: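 Metabolic activity was expressed relative to the mean of vehicle control wells. Jurkat cells or primary CD4+/CD8+ T cells, either naive or activated for 48 h with CD3/CD28 Dynabeads, were exposed to compound from 1 nM to 10 µM in log10 steps for 18 h at 37 °C, 5% CO2. Aliquots of 100 µl of suspension were moved to 96-well plates containing alamarBlue (10% v/v final), and fluorescence was read after 3.5 h on a FluoStar Omega at excitation 544 nm and emission 584 nm.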

Jurkat [3] = test: cytotoxicity relative to DMSO, 18 h (ratio); higher = less cell death (drugs called cytotoxic fall below 1)
In short: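 The assay used Jurkat cells or naive or CD3/CD28 Dynabead-activated (48 h) primary CD4+/CD8+ T cells, incubated with compound at 1 nM–10 µM in log10 steps for 18 h at 37 °C, 5% CO2. Cytotoxicity was assessed with IncuCyte Cytotox Dye and IncuCyte fluorescence imaging, corrected for confluency and scaled to mean control signals.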

| Compound | confluency (Jurkat [1]; 1 nM) | confluency (Jurkat [1]; 10 nM) | confluency (Jurkat [1]; 100 nM) | confluency (Jurkat [1]; 1000 nM) | confluency (Jurkat [1]; 10000 nM) | metabolic activity (Jurkat [2]; 1 nM) | metabolic activity (Jurkat [2]; 10 nM) | metabolic activity (Jurkat [2]; 100 nM) | metabolic activity (Jurkat [2]; 1000 nM) | metabolic activity (Jurkat [2]; 10000 nM) | cytotoxicity (Jurkat [3]; 1 nM) | cytotoxicity (Jurkat [3]; 10 nM) | cytotoxicity (Jurkat [3]; 100 nM) | cytotoxicity (Jurkat [3]; 1000 nM) | cytotoxicity (Jurkat [3]; 10000 nM) |
| --- | --- | --- | --- | --- | --- | --- | --- | --- | --- | --- | --- | --- | --- | --- | --- |
| COC(=O)c1ccc2c(C(=Nc3ccc(N(C)C(=O)CN4CCN(C)CC4)cc3)c3ccccc3)c(O)[nH]c2c1 [Nintedanib] | 0.986 | 0.955 | 0.981 | 0.832 | 0.566 | 1.01 | 0.93 | 0.949 | 0.919 | 0.827 | 0.929 | 0.948 | 0.988 | 0.81 | 0.537 |
| CC(C)CC(NC(=O)C(Cc1ccccc1)NC(=O)c1cnccn1)B(O)O (stereo not given) [Bortezomib] | 0.99 | 0.969 | 0.721 | 0.934 | 0.951 | 1.2 | 1.13 | 0.556 | 0.181 | 0.149 | 1.02 | 0.944 | 0.569 | 0.531 | 0.539 |
| Nc1ncn(C2OC(CO)C(O)C2O)c(=O)n1 (stereo not given) [5-Azacytidine] | 0.777 | 0.792 | 0.976 | 0.919 | 0.961 | 1.05 | 1.03 | 1.03 | 0.994 | 0.344 | 0.896 | 0.89 | 1.12 | 1 | 1.12 |
| NC1CCC(NC2CC2c2ccccc2)CC1 (stereo not given) [Iadademstat] | 1.01 | 0.967 | 1.02 | 1.03 | 1.05 | 0.93 | 0.857 | 0.737 | 1.09 | 0.95 | 0.988 | 0.933 | 0.928 | 1.14 | 1.15 |
| CNC1CC2OC(C)(C1OC)n1c3ccccc3c3c4c(c5c6ccccc6n2c5c31)C(=O)NC4 (stereo not given) [Staurosporine] | 0.829 | 0.908 | 0.897 | 0.964 | 0.876 | 0.916 | 1.06 | 0.979 | 1.02 | 0.995 | 0.826 | 0.955 | 0.959 | 1.04 | 0.913 |
| COc1cc(OC)c(C=CS(=O)(=O)Cc2ccc(OC)c(NCC(=O)O)c2)c(OC)c1 [Rigosertib] | 1.02 | 1.01 | 1.01 | 0.871 | 0.797 | 1.01 | 1.01 | 0.87 | 0.426 | 0.468 | 0.92 | 0.988 | 0.948 | 0.711 | 0.621 |
| CNCc1ccc(-c2[nH]c3cc(F)cc4c3c2CCNC4=O)cc1 [Rucaparib] | 1.06 | 1.03 | 1.04 | 1.07 | 0.931 | 0.926 | 0.952 | 0.981 | 0.996 | 0.973 | 1.06 | 1 | 1.04 | 1.07 | 0.899 |
| CC(C)N(CC1OC(n2cnc3c(N)ncnc32)C(O)C1O)C1CC(CCc2nc3ccc(C(C)(C)C)cc3[nH]2)C1 (stereo not given) [Pinometostat] | 0.929 | 0.934 | 1.11 | 1.02 | 0.941 | 0.998 | 1.05 | 1.12 | 0.858 | 0.958 | 0.982 | 1.06 | 1.25 | 1.01 | 1 |
| CC(C)Nc1cc(-c2c[nH]c(C(=O)NC(CO)c3cccc(Cl)c3)c2)c(Cl)cn1 (stereo not given) [Ulixertinib] | 1.02 | 1.06 | 0.999 | 1.11 | 0.826 | 1.05 | 1.02 | 0.828 | 0.866 | 0.878 | 0.973 | 1.01 | 0.93 | 0.998 | 0.777 |
| O=C(O)c1ccc(CN2CCC(CNC3CC3c3ccccc3)CC2)cc1 (stereo not given) | 0.954 | 0.956 | 0.996 | 0.987 | 0.993 | 1.09 | 1.06 | 1.09 | 1.08 | 1.02 | 1 | 1.04 | 1.1 | 1.04 | 1.03 |
| O=C(O)c1ccc(Nc2ncc3c(n2)-c2ccc(Cl)cc2C(c2c(F)cccc2F)=NC3)cc1 [MLN-8054] | 0.953 | 1.06 | 1.03 | 0.879 | 0.791 | 0.971 | 0.993 | 0.955 | 0.913 | 0.558 | 0.913 | 1.02 | 0.967 | 0.812 | 0.623 |
| CCCCN(Cc1ccc(C(=O)NO)cc1)C(=O)Nc1ccccc1 [Nexturastat A] | 0.989 | 0.978 | 0.98 | 0.935 | 0.989 | 1.05 | 1.15 | 1.1 | 1.02 | 0.66 | 1.05 | 1.15 | 1.07 | 0.955 | 0.92 |
| NC(=O)c1cccc2cn(-c3ccc(C4CCCNC4)cc3)nc12 (stereo not given) [Niraparib] | 1.07 | 1.04 | 1.06 | 1.05 | 0.915 | 0.947 | 0.907 | 1.17 | 0.992 | 1.01 | 1.11 | 1.01 | 1.1 | 1.03 | 0.94 |
| CCN1CCN(Cc2ccc(Nc3ncc(F)c(-c4cc(F)c5nc(C)n(C(C)C)c5c4)n3)nc2)CC1 [Abemaciclib] | 0.952 | 1.02 | 0.98 | 0.991 | 0.818 | 1.22 | 1.24 | 1.2 | 1.15 | 0.888 | 1.04 | 1.13 | 1.06 | 1.09 | 0.718 |
| CC(=O)Nc1cccc(-n2c(=O)n(C3CC3)c(=O)c3c(Nc4ccc(I)cc4F)n(C)c(=O)c(C)c32)c1 [Trametinib] | 1.01 | 1.03 | 1.05 | 1.03 | 1 | 1.12 | 1.08 | 1.15 | 1.1 | 1.02 | 1.14 | 1.12 | 1.26 | 1.12 | 1.02 |
| Cn1cc(-c2ccc(S(=O)(=O)n3ccc(C=CC(=O)Nc4ccccc4N)c3)cc2)cn1 [Domatinostat] | 0.879 | 0.91 | 0.901 | 1.03 | 0.63 | 1.1 | 1.12 | 1.03 | 0.922 | 0.704 | 0.906 | 0.925 | 0.886 | 1.06 | 0.636 |
| Cc1c(CN2CCN(C(=O)C(C)O)CC2)sc2c(N3CCOCC3)nc(-c3cnc(N)nc3)nc12 (stereo not given) [Apitolisib] | 0.851 | 1.06 | 0.825 | 0.998 | 0.727 | 0.857 | 0.984 | 0.899 | 0.955 | 0.781 | 0.79 | 0.992 | 0.752 | 0.937 | 0.628 |
| Cn1nccc1Nc1nccc(-c2ccn(C(CO)c3ccc(Cl)c(F)c3)c(=O)c2)n1 (stereo not given) [Ravoxertinib] | 0.989 | 0.841 | 0.884 | 0.894 | 0.886 | 0.977 | 0.997 | 1.04 | 1.07 | 1.1 | 1.1 | 0.921 | 1 | 0.983 | 1.02 |
| Nc1ncn(C2CC(O)C(CO)O2)c(=O)n1 (stereo not given) [Decitabine] | 1.02 | 1.01 | 0.986 | 0.972 | 0.939 | 1.05 | 1.04 | 1.02 | 0.948 | 0.867 | 0.966 | 0.964 | 0.922 | 0.869 | 0.862 |
| Cc1cc(C)cc(C(=O)NOCCCCCC(=O)NO)c1 [LMK235] | 0.982 | 1.03 | 1.06 | 1.16 | 1.3 | 0.997 | 0.979 | 1.04 | 0.905 | 0.694 | 0.947 | 0.991 | 1.08 | 1.04 | 1.26 |
| Cn1cnc2c(F)c(Nc3ccc(Br)cc3Cl)c(C(=O)NOCCO)cc21 [Selumetinib] | 0.985 | 0.965 | 0.988 | 0.983 | 0.974 | 1.05 | 1.04 | 1.03 | 1.03 | 1.07 | 1.01 | 0.984 | 1.06 | 1.02 | 0.959 |
| COC1CC2CCC(C)C(O)(O2)C(=O)C(=O)N2CCCCC2C(=O)OC(C(C)CC2CCC(OCCO)C(OC)C2)CC(=O)C(C)C=C(C)C(O)C(OC)C(=O)C(C)CC(C)C=CC=CC=C1C (stereo not given) [Everolimus] | 0.88 | 0.877 | 0.969 | 1.06 | 0.906 | 0.773 | 0.935 | 0.975 | 0.958 | 0.981 | 0.853 | 0.843 | 0.947 | 0.996 | 0.893 |
| CC(C)C(C(=O)Nc1ccc(C(=O)NO)cc1)c1ccccc1 (stereo not given) [AR-42] | 0.972 | 0.984 | 0.941 | 0.97 | 0.97 | 0.942 | 1.02 | 0.934 | 0.577 | 0.695 | 0.947 | 1.02 | 0.892 | 0.807 | 0.811 |
| COc1ccc(C2=NC(c3ccc(Cl)cc3)C(c3ccc(Cl)cc3)N2C(=O)N2CCNC(=O)C2)c(OC(C)C)c1 (stereo not given) [Nutlin-3] | 0.971 | 0.92 | 1.01 | 0.98 | 0.963 | 0.983 | 1.01 | 1.02 | 0.991 | 0.84 | 0.993 | 0.951 | 0.962 | 0.985 | 0.917 |
| CCN(CC)Cc1ccc2cc(COC(=O)Nc3ccc(C(=O)NO)cc3)ccc2c1 [Givinostat] | 1.05 | 0.98 | 1.05 | 1.18 | 1.2 | 0.902 | 0.981 | 0.969 | 0.845 | 0.762 | 1.15 | 1.01 | 1.06 | 1.03 | 1.04 |
| O=C(NO)c1cnc(NC2(c3ccccc3)CC2)nc1 [ACY738] | 1.01 | 0.994 | 1.03 | 0.995 | 0.999 | 0.936 | 0.962 | 1.1 | 0.862 | 0.713 | 0.969 | 0.95 | 1.15 | 1.05 | 0.982 |
| COC1CC2CCC(C)C(O)(O2)C(=O)C(=O)N2CCCCC2C(=O)OC(C(C)CC2CCC(O)C(OC)C2)CC(=O)C(C)C=C(C)C(O)C(OC)C(=O)C(C)CC(C)C=CC=CC=C1C (stereo not given) [Rapamycin] | 1.01 | 0.98 | 0.933 | 0.902 | 0.81 | 0.859 | 0.948 | 0.789 | 0.77 | 0.742 | 0.973 | 1.02 | 1.05 | 0.913 | 0.831 |
| COc1ccc(Cn2ccc3ccc(C(=O)NO)cc32)cc1 | 1.01 | 1.01 | 1 | 1.01 | 1 | 1.03 | 0.992 | 1.02 | 1.01 | 1.02 | 0.955 | 0.926 | 0.954 | 1.04 | 0.938 |
| O=C(Nc1cccc(Cl)c1)Nc1ncc(CCNc2ncnc3ccsc23)s1 [SNS-314] | 0.951 | 0.963 | 0.974 | 0.907 | 0.78 | 0.955 | 0.945 | 0.979 | 0.909 | 0.797 | 0.951 | 0.912 | 0.92 | 0.832 | 0.733 |
| CC1(c2nc3c(C(N)=O)cccc3[nH]2)CCCN1 (stereo not given) [Veliparib] | 1.07 | 1.04 | 1.02 | 1.03 | 0.966 | 0.894 | 0.816 | 0.851 | 0.948 | 0.8 | 1.03 | 0.975 | 0.969 | 1.08 | 0.9 |
